The assay has as its target Human thrombin (Homo sapiens (Human), UniProt P00734). Put plainly: Thrombin protease activity inhibition assay (chromogenic substrate S-2238). As to conditions: 3 nM thrombin, 125 μM S-2238, 10 min pre-incubation, RT. It counts as biochemical. The procedure, abridged:
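Ten-point, three-fold serial dilutions of compound tested against 3 nM enzyme at RT in Tris buffer (0.05 M, pH 7.4) with 0.015 M NaCl and 0.01% PEG-8000.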
Consider `O=C(c1ccc(N2CCOCC2)cc1)n1nc(-c2cccn(Cc3ccsc3)c2=O)cc1NCc1ccc(Cl)s1` [Cmpd 217, 3-(5-[(5-chlorothiophen-2-yl)methyl]amino-1-[4-(morpholin-4-yl)phenyl]carbonyl-1H-pyrazol-3-yl)-1-(thiophen-3-ylmethyl)-1,2-dihydropyridin-2-one], for which the IC50 is less than 0.1 µM. `O=c1c(-c2cc(NCc3ccc(Cl)s3)[nH]n2)cccn1Cc1nnn[nH]1` [Cmpd 219, 3-(5-[(5-chlorothiophen-2-yl)methyl]amino-1H-pyrazol-3-yl)-1-(1H-1,2,3,4-tetrazol-5-ylmethyl)-1,2-dihydropyridin-2-one] came in with a half-maximal inhibitory concentration (IC50) of 10 to 100 µM. As for `COCCn1cccc(-c2cc(NCc3ccc(Cl)s3)n[nH]2)c1=O` [Cmpd 220, 3-(5-[(5-chlorothiophen-2-yl)methyl]amino-1H-pyrazol-3-yl)-1-(2-methoxyethyl)-1,2-dihydropyridin-2-one], the figure is 10 to 100 µM; as for `O=c1c(-c2cc(NCc3ccc(Cl)s3)[nH]n2)cccn1CCc1ccccc1` [Cmpd 221, 3-(5-[(5-chlorothiophen-2-yl)methyl]amino-1H-pyrazol-3-yl)-1-(2-phenylethyl)-1,2-dihydropyridin-2-one], 10 to 100 µM. As for `O=c1c(-c2cc(NCc3ccc(Cl)s3)[nH]n2)cccn1Cc1ccco1` [Cmpd 222, 3-(5-[(5-chlorothiophen-2-yl)methyl]amino-1H-pyrazol-3-yl)-1-(furan-2-ylmethyl)-1,2-dihydropyridin-2-one], the figure is greater than 100 µM. Consider `O=c1c(-c2cc(NCc3ccc(Cl)s3)[nH]n2)cccn1Cc1ccoc1` [Cmpd 223, 3-(5-[(5-chlorothiophen-2-yl)methyl]amino-1H-pyrazol-3-yl)-1-(furan-3-ylmethyl)-1,2-dihydropyridin-2-one], for which the IC50 is 1 to 10 µM.

Compound `O=c1c(-c2cc(NCc3ccc(Cl)s3)[nH]n2)cccn1Cc1cccc2ccccc12` [Cmpd 224, 3-(5-[(5-chlorothiophen-2-yl)methyl]amino-1H-pyrazol-3-yl)-1-(naphthalen-1-ylmethyl)-1,2-dihydropyridin-2-one] displayed an IC50 greater than 100 µM.

Compound `O=c1c(-c2cc(NCc3ccc(Cl)s3)[nH]n2)cccn1Cc1ccc2ccccc2c1` [Cmpd 225, 3-(5-[(5-chlorothiophen-2-yl)methyl]amino-1H-pyrazol-3-yl)-1-(naphthalen-2-ylmethyl)-1,2-dihydropyridin-2-one] registered a half-inhibitory concentration (IC50) greater than 100 µM. As for `O=c1c(-c2cc(NCc3ccc(Cl)s3)[nH]n2)cccn1Cc1cccnn1` [Cmpd 226, 3-(5-[(5-chlorothiophen-2-yl)methyl]amino-1H-pyrazol-3-yl)-1-(pyridazin-3-ylmethyl)-1,2-dihydropyridin-2-one], the figure is 10 to 100 µM; as for `O=c1c(-c2cc(NCc3ccc(Cl)s3)n[nH]2)cccn1Cc1cccnc1` [Cmpd 228, 3-(5-[(5-chlorothiophen-2-yl)methyl]amino-1H-pyrazol-3-yl)-1-(pyridin-3-ylmethyl)-1,2-dihydropyridin-2-one], 1 to 10 µM. The compound `O=c1c(-c2cc(NCc3ccc(Cl)s3)[nH]n2)cccn1Cc1ncccn1` [Cmpd 230, 3-(5-[(5-chlorothiophen-2-yl)methyl]amino-1H-pyrazol-3-yl)-1-(pyrimidin-2-ylmethyl)-1,2-dihydropyridin-2-one] had an IC50 greater than 100 µM. With `O=c1c(-c2cc(NCc3ccc(Cl)s3)n[nH]2)cccn1Cc1cccs1` [Cmpd 231, 3-(5-[(5-chlorothiophen-2-yl)methyl]amino-1H-pyrazol-3-yl)-1-(thiophen-2-ylmethyl)-1,2-dihydropyridin-2-one], the half-inhibitory concentration (IC50) was 1 to 10 µM. In the case of `O=c1c(-c2cc(NCc3ccc(Cl)s3)[nH]n2)cccn1Cc1ccsc1` [Cmpd 232, 3-(5-[(5-chlorothiophen-2-yl)methyl]amino-1H-pyrazol-3-yl)-1-(thiophen-3-ylmethyl)-1,2-dihydropyridin-2-one], the concentration for half-maximal inhibition (IC50) lay within 1 to 10 µM.
